How the values were obtained:
Assay in all cases: SelectScreen, TR FRET
PIK3C2B (human) = PIK3C2B (human) (UniProt O00750)
PI4KA (human) = PI4KA (human) (UniProt P42356)
PRKDC (human) = PRKDC (human) (UniProt P78527)
PIK3C2A (human) = PIK3C2A (human) (UniProt O00443)

Sequence of PIK3C2B (human) (O00750 whole entry, looked up): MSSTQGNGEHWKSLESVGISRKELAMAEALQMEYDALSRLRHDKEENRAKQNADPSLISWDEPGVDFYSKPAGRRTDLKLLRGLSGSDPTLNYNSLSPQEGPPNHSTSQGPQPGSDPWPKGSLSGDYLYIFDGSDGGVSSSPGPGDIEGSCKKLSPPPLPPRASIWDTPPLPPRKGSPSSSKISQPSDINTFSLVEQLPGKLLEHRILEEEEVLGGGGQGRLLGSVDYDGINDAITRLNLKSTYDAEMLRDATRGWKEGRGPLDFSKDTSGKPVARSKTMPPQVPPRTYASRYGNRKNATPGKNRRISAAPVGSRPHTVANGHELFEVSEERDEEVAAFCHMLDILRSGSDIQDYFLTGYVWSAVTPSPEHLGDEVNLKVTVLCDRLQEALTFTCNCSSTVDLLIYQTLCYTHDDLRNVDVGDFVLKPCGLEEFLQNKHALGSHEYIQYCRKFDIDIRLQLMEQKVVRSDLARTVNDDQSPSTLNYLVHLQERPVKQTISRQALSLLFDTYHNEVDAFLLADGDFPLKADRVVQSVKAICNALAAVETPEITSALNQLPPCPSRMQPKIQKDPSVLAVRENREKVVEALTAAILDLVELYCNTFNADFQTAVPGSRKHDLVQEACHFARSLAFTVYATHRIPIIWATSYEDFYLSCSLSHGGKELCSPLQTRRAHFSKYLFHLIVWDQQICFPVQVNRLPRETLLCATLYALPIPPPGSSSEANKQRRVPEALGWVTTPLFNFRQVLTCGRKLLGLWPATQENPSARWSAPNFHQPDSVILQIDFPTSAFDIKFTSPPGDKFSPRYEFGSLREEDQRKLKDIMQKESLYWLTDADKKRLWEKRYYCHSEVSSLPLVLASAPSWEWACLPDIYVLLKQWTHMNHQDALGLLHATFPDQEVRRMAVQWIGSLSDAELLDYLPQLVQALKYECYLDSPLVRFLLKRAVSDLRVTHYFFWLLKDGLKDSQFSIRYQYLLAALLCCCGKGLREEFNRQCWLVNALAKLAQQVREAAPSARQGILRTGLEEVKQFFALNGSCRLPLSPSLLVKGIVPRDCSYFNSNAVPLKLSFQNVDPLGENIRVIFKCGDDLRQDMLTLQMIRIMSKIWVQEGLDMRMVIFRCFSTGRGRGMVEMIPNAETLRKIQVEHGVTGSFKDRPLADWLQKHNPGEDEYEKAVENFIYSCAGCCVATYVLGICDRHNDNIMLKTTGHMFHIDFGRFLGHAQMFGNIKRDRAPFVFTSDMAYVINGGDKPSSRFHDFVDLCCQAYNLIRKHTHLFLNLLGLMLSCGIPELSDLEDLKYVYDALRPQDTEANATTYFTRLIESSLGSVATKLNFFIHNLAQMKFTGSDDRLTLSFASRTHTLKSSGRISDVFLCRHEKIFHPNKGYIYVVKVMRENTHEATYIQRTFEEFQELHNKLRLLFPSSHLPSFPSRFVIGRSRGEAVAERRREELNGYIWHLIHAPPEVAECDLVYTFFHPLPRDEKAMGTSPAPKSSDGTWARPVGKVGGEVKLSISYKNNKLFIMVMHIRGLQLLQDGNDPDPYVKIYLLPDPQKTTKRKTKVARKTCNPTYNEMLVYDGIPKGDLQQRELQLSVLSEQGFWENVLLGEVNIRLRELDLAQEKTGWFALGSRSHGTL
Sequence of PI4KA (human) (P42356 whole entry, looked up): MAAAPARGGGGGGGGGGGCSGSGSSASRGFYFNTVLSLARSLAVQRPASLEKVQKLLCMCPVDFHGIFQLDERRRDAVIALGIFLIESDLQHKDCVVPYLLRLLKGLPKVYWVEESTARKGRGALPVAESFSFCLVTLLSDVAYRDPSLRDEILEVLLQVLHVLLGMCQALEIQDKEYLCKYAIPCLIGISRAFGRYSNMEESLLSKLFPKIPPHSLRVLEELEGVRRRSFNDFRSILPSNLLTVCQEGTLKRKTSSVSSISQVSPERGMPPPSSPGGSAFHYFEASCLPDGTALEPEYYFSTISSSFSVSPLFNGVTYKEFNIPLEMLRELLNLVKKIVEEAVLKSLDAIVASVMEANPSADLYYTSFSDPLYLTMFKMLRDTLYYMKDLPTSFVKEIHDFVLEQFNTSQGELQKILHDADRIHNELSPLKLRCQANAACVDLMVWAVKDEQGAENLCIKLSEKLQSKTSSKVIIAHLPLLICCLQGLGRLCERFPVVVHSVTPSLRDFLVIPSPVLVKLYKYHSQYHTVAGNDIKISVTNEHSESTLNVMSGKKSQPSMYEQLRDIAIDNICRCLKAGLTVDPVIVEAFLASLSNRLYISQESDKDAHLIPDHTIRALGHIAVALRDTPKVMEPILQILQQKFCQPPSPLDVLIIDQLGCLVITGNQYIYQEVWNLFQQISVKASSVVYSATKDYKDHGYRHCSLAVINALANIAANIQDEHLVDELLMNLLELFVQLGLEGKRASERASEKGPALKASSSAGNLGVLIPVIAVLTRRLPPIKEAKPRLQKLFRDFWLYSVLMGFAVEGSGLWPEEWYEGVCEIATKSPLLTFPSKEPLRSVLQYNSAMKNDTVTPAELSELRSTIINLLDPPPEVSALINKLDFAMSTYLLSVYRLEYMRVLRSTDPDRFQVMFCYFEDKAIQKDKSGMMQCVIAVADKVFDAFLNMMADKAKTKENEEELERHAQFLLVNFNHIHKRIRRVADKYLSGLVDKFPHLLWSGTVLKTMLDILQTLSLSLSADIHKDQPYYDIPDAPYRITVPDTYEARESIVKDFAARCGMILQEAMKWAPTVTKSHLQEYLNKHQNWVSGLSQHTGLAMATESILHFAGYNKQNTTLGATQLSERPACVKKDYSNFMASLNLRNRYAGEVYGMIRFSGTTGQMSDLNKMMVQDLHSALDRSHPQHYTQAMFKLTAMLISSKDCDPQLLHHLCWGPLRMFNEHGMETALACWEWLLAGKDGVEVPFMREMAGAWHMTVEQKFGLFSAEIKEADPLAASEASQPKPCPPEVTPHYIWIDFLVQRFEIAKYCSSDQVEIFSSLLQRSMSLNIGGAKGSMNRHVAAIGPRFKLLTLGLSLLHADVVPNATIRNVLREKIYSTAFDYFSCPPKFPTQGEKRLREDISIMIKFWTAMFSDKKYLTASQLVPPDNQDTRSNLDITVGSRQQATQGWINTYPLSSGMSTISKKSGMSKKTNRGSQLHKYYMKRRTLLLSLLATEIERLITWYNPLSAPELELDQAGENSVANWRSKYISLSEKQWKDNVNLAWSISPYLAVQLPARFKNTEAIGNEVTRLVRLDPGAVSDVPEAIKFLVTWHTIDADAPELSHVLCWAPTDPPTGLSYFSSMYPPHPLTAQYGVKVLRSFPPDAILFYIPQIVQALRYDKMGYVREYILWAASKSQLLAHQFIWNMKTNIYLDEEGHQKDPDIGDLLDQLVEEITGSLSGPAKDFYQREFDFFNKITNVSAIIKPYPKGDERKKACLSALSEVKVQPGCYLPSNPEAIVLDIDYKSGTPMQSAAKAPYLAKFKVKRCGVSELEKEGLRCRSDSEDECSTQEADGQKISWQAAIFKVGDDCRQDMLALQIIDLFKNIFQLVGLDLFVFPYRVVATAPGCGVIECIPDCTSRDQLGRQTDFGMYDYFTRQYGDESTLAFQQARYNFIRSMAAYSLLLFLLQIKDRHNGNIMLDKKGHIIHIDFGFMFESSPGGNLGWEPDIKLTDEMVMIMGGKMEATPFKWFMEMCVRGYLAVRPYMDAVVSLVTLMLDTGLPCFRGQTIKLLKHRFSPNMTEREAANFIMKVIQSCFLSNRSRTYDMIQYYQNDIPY

Cc1cc([C@@H](C)Nc2ccccc2C(=O)O)c2nc(N3CCOCC3)cc(=O)n2c1
IC50 (PIK3C2B (human)): 0.0541 µM
IC50 (PI4KA (human)): 8.83 µM
IC50 (PRKDC (human)): 0.0537 µM
IC50 (PIK3C2A (human)): > 1 µM

Reference: the kinase profiling compilation of Christmann-Franck et al. (2016)
